62 compounds from PubChem BioAssay AID624361 (Broad Institute, 2012) can be followed below.

This assay has as its system LMP1-induced NF-kappaB luciferase reporter cells, luminescence. The assay is described as follows: LMP1-induced NF-kB luciferase signal inhibition – cell-based, EBV LMP1, dry powder, set 2, dose response (AID 624361).

Each structure is given as a SMILES string. Inconclusive results are not listed.

Take `COc1cccc(S(=O)(=O)N(C)C[C@H]2Oc3cc(C4=CCCCC4)ccc3S(=O)(=O)N([C@@H](C)CO)C[C@@H]2C)c1`: the AC35 was 20.2 µM.
To `Cc1noc(C)c1S(=O)(=O)Nc1ccc2c(c1)C(=O)N([C@@H](C)CO)C[C@H](C)[C@@H](CN(C)Cc1ccc(C(F)(F)F)cc1)OCCCC[C@@H](C)O2` belongs 21.5 µM; to `O=C(C[C@@H]1CC[C@@H]2[C@H](COC[C@@H](O)CN2Cc2ccc3c(c2)OCO3)O1)Nc1ccc(-c2ccccc2)cc1`, 10 µM.
Turning to `COc1ccccc1C#Cc1ccc([C@H]2[C@H](C#N)N(C(=O)C3CC3)[C@H]2CO)cc1`, the AC35 is 20 µM.
With `Cc1noc(C)c1S(=O)(=O)Nc1ccc2c(c1)C(=O)N([C@@H](C)CO)C[C@@H](C)[C@@H](CN(C)Cc1ccc(C(F)(F)F)cc1)OCCCC[C@H](C)O2` the figure was 32.8 µM.
Consider `COc1cccc(S(=O)(=O)N(C)C[C@@H]2Oc3cc(C4=CCCCC4)ccc3S(=O)(=O)N([C@@H](C)CO)C[C@H]2C)c1`, for which the AC35 was 20.9 µM.
Consider `O=C(Nc1ccc(C(F)(F)F)cc1)Nc1ccc2c(c1)[C@@H]1C[C@H](CC(=O)N3CCc4ccccc4C3)O[C@H](CO)[C@@H]1O2`, for which the AC35 was 8.02 µM.
`C[C@@H]1CN([C@@H](C)CO)S(=O)(=O)c2ccc(C#Cc3ccncc3)cc2O[C@H]1CN(C)C(=O)Nc1ccc2c(c1)OCO2`: the AC35 was 24 µM.
In the case of `C[C@@H]1CN([C@H](C)CO)S(=O)(=O)c2ccc(C#C[C@@H](C)O)cc2O[C@H]1CN(C)Cc1ccc(-c2ccccc2)cc1`, the AC35 is 22.4 µM.
Regarding `Cc1noc(C)c1S(=O)(=O)Nc1ccc2c(c1)C(=O)N([C@H](C)CO)C[C@H](C)[C@@H](CN(C)Cc1ccc(C(F)(F)F)cc1)OCCCC[C@H](C)O2`, the AC35 was 22.1 µM.
With `C[C@H](CO)N1C[C@H](C)[C@H](CN(C)C(=O)NC2CCCCC2)Oc2cc(/C=C/c3ccccc3)ccc2S1(=O)=O`, the AC35 was 24 µM.
For `Cc1ccc(S(=O)(=O)N(C)C[C@H]2Oc3cc(C#Cc4ccncc4)ccc3S(=O)(=O)N([C@@H](C)CO)C[C@@H]2C)cc1`, the AC35 is 10.2 µM.
With `N#C[C@H]1[C@@H](c2ccc(-c3cccnc3)cc2)[C@@H](CO)N1C(=O)Nc1ccc(F)cc1`, the AC35 was 34.3 µM.
Consider `COc1cccc(C#Cc2ccc([C@@H]3[C@H](C#N)N(C(=O)c4ccccn4)[C@H]3CO)cc2)c1`, for which the AC35 was 26.1 µM.
Consider `Cc1noc(C)c1S(=O)(=O)Nc1ccc2c(c1)C(=O)N([C@@H](C)CO)C[C@H](C)[C@H](CN(C)Cc1ccc(C(F)(F)F)cc1)OCCCC[C@@H](C)O2`, for which the AC35 was 28.9 µM.
For `C[C@@H]1CN([C@H](C)CO)S(=O)(=O)c2ccc(/C=C/c3ccccc3)cc2O[C@H]1CN(C)C(=O)NC1CCCCC1`, the AC35 is 19.3 µM.
To `C[C@H]1CN([C@@H](C)CO)S(=O)(=O)c2ccc(C#Cc3ccncc3)cc2O[C@H]1CN(C)C(=O)Nc1ccc2c(c1)OCO2` belongs 14.8 µM.
As to `Cc1noc(C)c1S(=O)(=O)Nc1ccc2c(c1)C(=O)N([C@@H](C)CO)C[C@@H](C)[C@H](CN(C)Cc1ccc(C(F)(F)F)cc1)OCCCC[C@@H](C)O2`, the AC35 is 31.7 µM.
Take `CN1C(=O)c2cc(NC(=O)Cc3cccs3)ccc2OC[C@@H]2O[C@H](CC(=O)NCc3ccc(-c4ccccc4)cc3)CC[C@H]21`: the AC35 was 29.4 µM.
Consider `CN(C)c1ccc2c(c1)[C@@H]1C[C@@H](CC(=O)NCc3ccc(Oc4ccccc4)cc3)O[C@H](CO)[C@@H]1O2`, for which the AC35 is 12.9 µM.
Take `COc1ccccc1C#Cc1ccc2c(c1)O[C@H](CN(C)Cc1cccnc1)[C@H](C)CN([C@@H](C)CO)S2(=O)=O`: the AC35 was 18.3 µM.
As for `CC(C)(C)[S@](=O)N1Cc2cc(C(=O)NCC(F)(F)F)nc(-c3cccc(-c4cccc(F)c4)c3)c2[C@@H]1CCO`, the AC35 was 8.29 µM.
To `O=C(C[C@@H]1CC[C@@H]2[C@H](COC[C@H](O)CN2Cc2ccc3c(c2)OCO3)O1)Nc1ccc(-c2ccccc2)cc1` belongs 7.79 µM.
With `Cc1noc(C)c1S(=O)(=O)Nc1ccc2c(c1)C(=O)N([C@H](C)CO)C[C@@H](C)[C@@H](CN(C)Cc1ccc(C(F)(F)F)cc1)OCCCC[C@H](C)O2`, the AC35 is 26.4 µM.
As to `O=C(Nc1ccc(C(F)(F)F)cc1)Nc1ccc2c(c1)[C@H]1C[C@H](CC(=O)N3CCc4ccccc4C3)O[C@H](CO)[C@H]1O2`, the AC35 was 24.9 µM.
On to `O=C(C[C@@H]1CC[C@@H]2[C@H](COC[C@@H](O)CN2Cc2ccc(Oc3ccccc3)cc2)O1)N1CCc2ccccc2C1`, for which the AC35 is 17.8 µM.
Consider `COc1cccc(C#Cc2ccc([C@@H]3[C@@H](C#N)N(C(=O)c4ccccn4)[C@@H]3CO)cc2)c1`, for which the AC35 was 18 µM.
Regarding `COc1ccc(S(=O)(=O)N(C)C[C@H]2Oc3ncc(/C=C/c4ccccc4)cc3C(=O)N([C@H](C)CO)C[C@@H]2C)cc1`, the AC35 was 20.5 µM.
Consider `N#C[C@@H]1[C@H](c2ccc(C#Cc3ccccc3F)cc2)[C@@H](CO)N1C(=O)c1cccnc1`, for which the AC35 was 0.9 µM.
As for `Cc1noc(C)c1S(=O)(=O)Nc1ccc2c(c1)C(=O)N([C@H](C)CO)C[C@H](C)[C@H](CN(C)Cc1ccc(C(F)(F)F)cc1)OCCCC[C@@H](C)O2`, the AC35 was 33.8 µM.
Turning to `N#C[C@H]1[C@H](c2ccc(C#Cc3ccccc3F)cc2)[C@@H](CO)N1C(=O)c1cccnc1`, the AC35 is 22.8 µM.
As to `COc1cccc(S(=O)(=O)N(C)C[C@H]2Oc3cc(C4=CCCCC4)ccc3S(=O)(=O)N([C@H](C)CO)C[C@H]2C)c1`, the AC35 is 33 µM.
With `O=C(C[C@H]1C[C@@H]2c3cc(NS(=O)(=O)c4ccc(F)cc4)ccc3O[C@@H]2[C@@H](CO)O1)NCc1ccc(Oc2ccccc2)cc1`, the AC35 was 12.3 µM.
For the compound `C[C@H]1CN([C@@H](C)CO)C(=O)c2cc(C#Cc3ccccc3F)cnc2O[C@@H]1CN(C)C(=O)C1CCCCC1`, the AC35 is 24.6 µM.
To `CC(C)(C)[S@@](=O)N1Cc2cc(C(=O)NCc3ccccc3F)nc(-c3cccc(-c4ccncc4)c3)c2[C@H]1CCO` belongs 35.5 µM.
For `O=C(C[C@@H]1C[C@H]2c3cc(NS(=O)(=O)c4ccc(F)cc4)ccc3O[C@H]2[C@@H](CO)O1)NCc1ccc(Oc2ccccc2)cc1`, the AC35 was 14.7 µM.
On to `CN(C)c1ccc2c(c1)[C@@H]1C[C@H](CC(=O)NCc3ccc(Oc4ccccc4)cc3)O[C@@H](CO)[C@@H]1O2`, for which the AC35 was 11.4 µM.
With `COc1ccc(S(=O)(=O)N(C)C[C@@H]2Oc3ncc(/C=C/c4ccccc4)cc3C(=O)N([C@@H](C)CO)C[C@H]2C)cc1`, the AC35 was 28.6 µM.
As for `Cc1noc(C)c1S(=O)(=O)Nc1ccc2c(c1)C(=O)N([C@H](C)CO)C[C@H](C)[C@H](CN(C)Cc1ccc(C(F)(F)F)cc1)OCCCC[C@H](C)O2`, the AC35 was 27.8 µM.
In the case of `C[C@@H]1CN([C@H](C)CO)C(=O)Cc2cc(NC(=O)Cc3ccccc3)ccc2O[C@@H]1CN(C)Cc1ccc(C(F)(F)F)cc1`, the AC35 is 31.5 µM.
For the compound `O=C(C[C@@H]1C[C@@H]2c3cc(NS(=O)(=O)c4ccc(F)cc4)ccc3O[C@@H]2[C@@H](CO)O1)NCc1ccc(Oc2ccccc2)cc1`, the AC35 is 12.3 µM.
With `COc1cccc(S(=O)(=O)N(C)C[C@@H]2Oc3cc(C4=CCCCC4)ccc3S(=O)(=O)N([C@@H](C)CO)C[C@@H]2C)c1` the figure was 24 µM; with `O=C(C[C@H]1C[C@H]2c3cc(NC(=O)c4ccc5c(c4)OCO5)ccc3O[C@H]2[C@H](CO)O1)NCc1ccc(Oc2ccccc2)cc1`, 20.7 µM; with `COc1cccc(S(=O)(=O)N(C)C[C@@H]2Oc3cc(C4=CCCCC4)ccc3S(=O)(=O)N([C@H](C)CO)C[C@H]2C)c1`, 23.4 µM.
With `Cc1ccc(S(=O)(=O)N(C)C[C@H]2Oc3cc(C#Cc4ccncc4)ccc3S(=O)(=O)N([C@@H](C)CO)C[C@H]2C)cc1`, the AC35 is 11.5 µM.
As for `O=C(C[C@H]1C[C@H]2c3cc(NS(=O)(=O)c4ccc(F)cc4)ccc3O[C@H]2[C@H](CO)O1)NCc1ccc(Oc2ccccc2)cc1`, the AC35 was 10.3 µM.
Consider `C[C@H](CO)N1C[C@H](C)[C@@H](CN(C)S(=O)(=O)c2cccc(F)c2)Oc2ncc(C#CC3CCCCC3)cc2C1=O`, for which the AC35 was 35.3 µM.
In the case of `CC(C)(C)[S@@](=O)N1Cc2cc(C(=O)NCc3ccccc3F)nc(-c3cccc(-c4cccnc4)c3)c2[C@H]1CCO`, the AC35 was 29.5 µM.
To `COc1ccc(NC(=O)N(C)C[C@@H]2Oc3cc(C#CCC(C)C)ccc3S(=O)(=O)N([C@@H](C)CO)C[C@@H]2C)cc1` belongs 28.3 µM; to `CC(C)NC(=O)N1Cc2cc(C(=O)NC3Cc4ccccc4C3)nc(-c3cccc(-c4cccnc4)c3)c2[C@H]1CCO`, 28.2 µM; to `CC(C)NC(=O)N1Cc2cc(C(=O)NC3Cc4ccccc4C3)nc(-c3cccc(-c4cccnc4)c3)c2[C@@H]1CCO`, 23.7 µM.
With `Cc1noc(C)c1S(=O)(=O)Nc1ccc2c(c1)C(=O)N([C@@H](C)CO)C[C@H](C)[C@@H](CN(C)Cc1ccc(C(F)(F)F)cc1)OCCCC[C@H](C)O2`, the AC35 is 30.3 µM.
To `CN(C)C(=O)c1cccc(-c2cccc(-c3nc(C(=O)NCc4ccccc4)cc4c3[C@@H](CCO)N([S@](=O)C(C)(C)C)C4)c2)c1` belongs 16.5 µM.
Take `O=C(Nc1ccc(C(F)(F)F)cc1)Nc1ccc2c(c1)[C@H]1C[C@@H](CC(=O)N3CCc4ccccc4C3)O[C@@H](CO)[C@H]1O2`: the AC35 was 21.7 µM.
For `Cc1cc(C(=O)Nc2ccc3c(c2)C(=O)N(C)[C@H]2CC[C@@H](CC(=O)NCc4ccc(-c5ccccc5)cc4)O[C@H]2CO3)no1`, the AC35 is 14.2 µM.
With `O=C(Nc1ccc(C(F)(F)F)cc1)Nc1ccc2c(c1)[C@@H]1C[C@H](CC(=O)N3CCc4ccccc4C3)O[C@@H](CO)[C@@H]1O2` the figure was 9.85 µM; with `O=C(C[C@H]1C[C@@H]2c3cc(NC(=O)c4ccc5c(c4)OCO5)ccc3O[C@@H]2[C@@H](CO)O1)NCc1ccc(Oc2ccccc2)cc1`, 26.6 µM; with `C[C@@H]1CN([C@@H](C)CO)S(=O)(=O)c2ccc(C#C[C@@H](C)O)cc2O[C@H]1CN(C)Cc1ccc(-c2ccccc2)cc1`, 21.5 µM.
`CC(C)c1ccc(NC(=O)C[C@H]2CC[C@H]3[C@@H](COc4ccc(NC(=O)Nc5ccc(F)c(F)c5)cc4C(=O)N3C)O2)cc1`: the AC35 was 18.1 µM.
For `Cc1noc(C)c1S(=O)(=O)Nc1ccc2c(c1)C(=O)N([C@@H](C)CO)C[C@H](C)[C@H](CN(C)Cc1ccc(C(F)(F)F)cc1)OCCCC[C@H](C)O2`, the AC35 was 33.4 µM.
Take `O=C(C[C@H]1CC[C@H]2[C@@H](COC[C@@H](O)CN2Cc2ccc3c(c2)OCO3)O1)Nc1ccc(-c2ccccc2)cc1`: the AC35 is 16.1 µM.
As for `CCCNC(=O)c1cc2c(c(-c3cccc(-c4cccc(F)c4)c3)n1)[C@H](CCO)N([S@@](=O)C(C)(C)C)C2`, the AC35 is 30.6 µM.
